Consider 29 compounds from ChEMBL document CHEMBL6182860, “Discovery and rational optimization of 2, 2'-((1H-indole-2,3-diyl) bis (thio))diacetamide as novel SARS-CoV-2 RdRp inhibitors” (Bioorg Med Chem, 2025).

A short description of data set [1]: Cytotoxicity against HEK293T cells assessed as reduction in cell viability incubated for 24 hrs by CCK-8 assay. Format: toxicity, cell-based, HEK-293T. Conditions: human; call rule not given here. In general terms: Tetrazolium dyes change colour on reduction, which living cells bring about.
Data set [2] concerns the target Replicase polyprotein 1ab (Severe acute respiratory syndrome coronavirus 2) (UniProt P0DTD1). The experiment in a line: Inhibition of SARS-Cov-2 RdRp expressed in HEK293T cells co-transfected with pCoV-Gluc and pCOVID-nsp12/7/8 at 10 uM incubated for 24 hrs by microplate luminometric analysis relative to control. It counts as cell-based.
Data set [3] deals with T1, Replicase polyprotein 1ab (Severe acute respiratory syndrome coronavirus 2, UniProt P0DTD1). Nature of the data set: Inhibition of SARS-Cov-2 RdRp expressed in HEK293T cells co-transfected with pCoV-Gluc and pCOVID-nsp12/7/8 incubated for 24 hrs by microplate luminometric analysis. Format: cell-based.
For data set [4], the target named is Replicase polyprotein 1ab (Severe acute respiratory syndrome coronavirus 2) (UniProt P0DTD1). The experiment in a line: Inhibition of SARS-Cov-2 RdRp expressed in HEK293T cells co-transfected with pCoV-Gluc and pCOVID-nsp12/7/8 assessed as reduction in viral negative strand Gluc-RNA level incubated for 24 hrs by qRT-PCR analysis. It counts as cell-based.
Data set [5] has as its system Human coronavirus OC43. The experiment in a line: Antiviral activity against HCoV OC43 infected in human HCT-8 cells assessed as inhibition of viral replication by measuring maximal inhibition at 50 uM pre-infected for 1 hrs followed by compound administration and measured 120 hrs post-infection by MTS assay relative to control. Format: functional. The following applies: time 119 hrs.

In data set [6] the test system is Human coronavirus NL63. The experiment in a line: Antiviral activity against HCoV NL63 infected in rhesus monkey LLC-MK2 cells assessed as inhibition of viral replication by measuring maximal inhibition at 50 uM pre-infected for 1 hrs followed by compound administration and measured 120 hrs post-infection by MTS assay relative to control. Format: functional. The following applies: time 119 hrs.

The target of data set [7] is T1, Replicase polyprotein 1ab. Nature of the data set: Inhibition of SARS-Cov-2 RdRp expressed in HEK293T cells co-transfected with pCoV-Gluc and pCOVID-nsp12/7/8/10/14 assessed as tolerance to proof reading activity of nsp14/10 exonuclease incubated for 24 hrs by microplate luminometric analysis. Format: cell-based.
Data set [8] has as its system Human coronavirus NL63. Nature of the data set: Antiviral activity against HCoV NL63 infected in rhesus monkey LLC-MK2 cells assessed as inhibition of viral replication pre-infected for 1 hrs followed by compound administration and measured 120 hrs post-infection by MTS assay. Format: functional, organism-based. Conditions: for Activity: time 119.0 hrs.
In data set [9] the test system is Human coronavirus OC43. Nature of the data set: Antiviral activity against HCoV OC43 infected in human HCT-8 cells assessed as inhibition of viral replication pre-infected for 1 hrs followed by compound administration and measured 120 hrs post-infection by MTS assay. It counts as functional, organism-based. Conditions: for EC50: Betacoronavirus 1, HCT-8; for Activity: time 119.0 hrs.

Data set [10] deals with Replicase polyprotein 1ab (Severe acute respiratory syndrome coronavirus 2) (UniProt P0DTD1). Nature of the data set: Inhibition of SARS-Cov-2 RdRp expressed in HEK293T cells co-transfected with pCoV-Gluc and pCOVID-nsp12/7/8 assessed as reduction in viral positive strand Gluc-RNA level incubated for 24 hrs by qRT-PCR analysis. It counts as cell-based. In general terms: In qPCR the cycle at which signal appears reflects the starting amount.

The target is the same in data set [11]. Nature of the data set: Inhibition of SARS-Cov-2 RdRp expressed in HEK293T cells co-transfected with pCoV-Gluc and pCOVID-nsp12/7/8 at 0.5 to 2 uM incubated for 24 hrs by microplate luminometric analysis. Format: cell-based. Conditions: dose 0.5-2 µM.
For data set [12] the target is unchanged. Nature of the data set: Inhibition of SARS-Cov-2 RdRp expressed in HEK293T cells co-transfected with pCoV-Gluc and pCOVID-nsp12/7/8 at 3 uM incubated for 24 hrs by microplate luminometric analysis. It counts as cell-based.

Usually CC50 stands for the concentration at which the toxic effect on the cells reaches its halfway point. What is called inhibition is the percentage by which the read-out fell short of the control. In general, EC50 refers to the concentration at which the effect is half-maximal.

Molecules are shown by their SMILES.

For `O=C(CSc1[nH]c2ccccc2c1SCC(=O)Nc1ccc(Cl)c(Cl)c1)NCc1cccc(Cl)c1`, the CC50 at 24 h in [1] was more than 100 µM. In [2], the inhibition turned out to be 85.1%. This compound displayed an EC50 in [3] of 2.14 µM.
For `CCOc1ccccc1NC(=O)CSc1c(SCC(=O)NCc2ccccc2OC)[nH]c2ccccc12`, in that order: more than 100 µM, 73.8% and 2.36 µM.
For `CCOc1ccccc1NC(=O)CSc1c(SCC(=O)NCc2ccccc2F)[nH]c2ccccc12`, the inhibition entry in data set [4] (dose 5-10 µM, time 24.0 hrs) was “Dose-dependent-effect”; in data set [10] (dose 5-10 µM, time 24.0 hrs), “Dose-dependent-effect”; in data set [11], “Active; Better Inhibitory Effect Than Remdesivir Observed”; in data set [2] it was 89.5%. Besides, the CC50 at 24 h in data set [1] is more than 100 µM. Besides, the Imax in data set [5] came out at 90%; in [6] it was 80%. Further, the EC50 came to 1.07 µM in [7], 13.4 µM in [8], 1.52 µM in data set [9] and 0.71 µM in data set [3]. In addition, the Activity result in data set [8] and in data set [9] was “Dose-dependent-effect” each time.
On to `O=C(CSc1[nH]c2ccccc2c1SCC(=O)Nc1ccc(Cl)c(Cl)c1)NCc1ccccc1`, for which the CC50 at 24 h in data set [1] worked out at 87.1 µM. Moreover, the inhibition in data set [2] is 97%. Besides, a half-maximal response in [3] (EC50) required 3.13 µM.
In the case of `CCOc1ccccc1CNC(=O)CSc1[nH]c2ccccc2c1SCC(=O)Nc1ccc(Cl)c(Cl)c1`, the inhibition entry is “Dose-dependent-effect” in data set [4] (dose 5-10 µM, time 24.0 hrs); “Active; Maximum Inhibitory Effect Observed” in data set [12]; “Dose-dependent-effect” in data set [10] (dose 5-10 µM, time 24.0 hrs); 92% in data set [2]. Also, the CC50 at 24 h in [1] came out at 72.5 µM. In addition, the EC50 was determined as 1.69 µM in data set [7] and 1.45 µM in data set [3].
Take `Cc1ccc(CNC(=O)CSc2[nH]c3ccccc3c2SCC(=O)Nc2ccc(Cl)c(Cl)c2)cc1`: the CC50 at 24 h in data set [1] is more than 100 µM. This compound also had an inhibition in data set [2] of 91.9%. Also, it took 1.6 µM to reach a half-maximal effect in [3] (EC50).
In the same order, the values of `CCOc1ccccc1NC(=O)CSc1c(SCC(=O)NCc2ccc(Cl)cc2)[nH]c2ccccc12` are more than 100 µM, 95.4% and 1.77 µM.
Take `CCOc1ccccc1NC(=O)CSc1c(SCC(=O)NCc2cccc(C)c2)[nH]c2ccccc12`: in [2], the inhibition came to 40.2%.
Turning to `COc1ccccc1CNC(=O)CSc1[nH]c2ccccc2c1SCC(=O)Nc1ccc(Cl)c(Cl)c1`, the CC50 at 24 h in data set [1] was more than 100 µM. In addition, the inhibition in data set [2] amounted to 95.5%. Further, a half-maximal response in data set [3] (EC50) required 2 µM.
In the case of `Cc1cccc(CNC(=O)CSc2[nH]c3ccccc3c2SCC(=O)Nc2ccc(Cl)c(Cl)c2)c1`, the inhibition result in data set [4] is “Dose-dependent-effect; Inhibition Effect Were Twice As Potent As Remdesivir At 10 Um”; in data set [12] it was “Active; Maximum Inhibitory Effect Observed”; in data set [10], “Dose-dependent-effect; Inhibition Effect Were Twice As Potent As Remdesivir At 10 Um”; in data set [2] it was 96%. In addition, the CC50 at 24 h in data set [1] was determined as 90.3 µM. Further, the EC50 was 1.75 µM in [7] and 1.55 µM in data set [3].
`CCOc1ccccc1NC(=O)CSc1c(SCC(=O)NCc2ccc(C)cc2)[nH]c2ccccc12`: the CC50 at 24 h in data set [1] was more than 100 µM. The inhibition in [2] came out at 88.3%. The same compound registered an EC50 in data set [3] of 2.76 µM.
Regarding `CCC(CC)COC(=O)[C@H](C)N[P@](=O)(OC[C@H]1O[C@@](C#N)(c2ccc3c(N)ncnn23)[C@H](O)[C@@H]1O)Oc1ccccc1`, the inhibition entry was “Dose-dependent-effect” in data set [4] (dose 5-10 µM, time 24.0 hrs); “Dose-dependent-effect” in data set [10] (dose 5-10 µM, time 24.0 hrs); 87% in [2]. For the same compound, in data set [1], the CC50 at 24 h is more than 100 µM. Also, the EC50 came to 3.42 µM in data set [8] and 1.79 µM in data set [9].
For the compound `O=C(CSc1[nH]c2ccccc2c1SCC(=O)Nc1ccc(Cl)c(Cl)c1)Nc1ccc(Cl)c(Cl)c1`, the CC50 at 24 h in data set [1] worked out at 95.5 µM. Moreover, the inhibition in [2] came out at 88.1%. Further, the response in data set [3] was half-maximal at 2.43 µM (EC50).
In the same order, the values of `O=C(CSc1[nH]c2ccccc2c1SCC(=O)Nc1ccc(Cl)c(Cl)c1)NCc1ccc(Cl)cc1` are more than 100 µM, 96.6% and 1.88 µM.
As to `CCOc1ccccc1NC(=O)CSc1c(SCC(=O)NCc2cccc(Cl)c2)[nH]c2ccccc12`, the inhibition entry was “Dose-dependent-effect” in data set [4] (dose 5-10 µM, time 24.0 hrs); “Dose-dependent-effect” in [10] (dose 5-10 µM, time 24.0 hrs); “Active; Better Inhibitory Effect Than Remdesivir Observed” in data set [11]; 94.8% in data set [2]. Moreover, in [1], the CC50 at 24 h is more than 100 µM. Further, the Imax in data set [5] was 90%; in [6], 80%. The EC50 in data set [7] was 0.85 µM; in data set [8], 4.11 µM; in data set [9], 1.28 µM; in data set [3], 0.57 µM. Moreover, the Activity result in data set [8] and in [9] was “Dose-dependent-effect” throughout.
The compound `CCOc1ccccc1NC(=O)CSc1c(SCC(=O)NCc2ccc(-c3ccccc3)cc2)[nH]c2ccccc12` gave an inhibition in data set [2] of 39.7%.
Same read-out and setting: the result for `CCOc1ccccc1NC(=O)CSc1[nH]c2ccccc2c1SCC(=O)Nc1ccccc1OCC` reads 48.5%.
For `CCOc1ccccc1NC(=O)CSc1c(SCC(=O)NCc2ccccc2)[nH]c2ccccc12`, the CC50 at 24 h in [1] was more than 100 µM. Besides, in [2], the inhibition is 89.2%. This compound had an EC50 in data set [3] of 2.14 µM.
For `CCOc1ccccc1NC(=O)CSc1c(SCC(=O)NCc2ccccc2Cl)[nH]c2ccccc12`, in that order: more than 100 µM, 80.8% and 2.55 µM.
In the same order, the values of `O=C(CSc1[nH]c2ccccc2c1SCC(=O)Nc1ccc(Cl)c(Cl)c1)NCc1ccc(Cl)c(Cl)c1` are more than 100 µM, 89.1% and 2.02 µM.
In the same order, the values of `O=C(CSc1[nH]c2ccccc2c1SCC(=O)Nc1ccc(Cl)c(Cl)c1)NCc1ccccc1Cl` are more than 100 µM, 82% and 2.33 µM.
On to `CCOc1ccccc1NC(=O)CSc1c(SCC(=O)NCc2ccc(Cl)c(Cl)c2)[nH]c2ccccc12`, for which, in data set [1], the CC50 at 24 h was more than 100 µM. Besides, the inhibition in data set [2] was 84.8%. Also, the response in data set [3] was half-maximal at 2.59 µM (EC50).
In turn, `CCOc1ccccc1CNC(=O)CSc1[nH]c2ccccc2c1SCC(=O)Nc1ccccc1OCC` showed an inhibition in data set [2] of 39.2%.
Turning to `CCOc1ccccc1NC(=O)CSc1c(SCC(=O)NCc2ccccc2C)[nH]c2ccccc12`, the CC50 at 24 h in data set [1] is more than 100 µM. Also, the inhibition in data set [2] worked out at 77.5%. Besides, a half-maximal effect in [3] (EC50) was put at 2.58 µM.
For the compound `O=C(CSc1[nH]c2ccccc2c1SCC(=O)Nc1ccc(Cl)c(Cl)c1)NCc1ccc(-c2ccccc2)cc1`, the CC50 at 24 h in data set [1] was determined as 75.1 µM. The inhibition in [2] is 93.8%. In data set [3], this compound yielded an EC50 of 1.91 µM.
On to `O=C(CSc1[nH]c2ccccc2c1SCC(=O)Nc1ccc(Cl)c(Cl)c1)NCc1ccccc1F`, for which the inhibition result was “Dose-dependent-effect; Inhibition Effect Were Twice As Potent As Remdesivir At 10 Um” in [4], “Active; Maximum Inhibitory Effect Observed” in [12], “Dose-dependent-effect; Inhibition Effect Were Twice As Potent As Remdesivir At 10 Um” in [10] and 93.6% in [2]. Moreover, in data set [1], the CC50 at 24 h was found to be 78.6 µM. The EC50 in data set [7] is 1.8 µM; in data set [3] it was 1.44 µM.
With `Cc1ccccc1CNC(=O)CSc1[nH]c2ccccc2c1SCC(=O)Nc1ccc(Cl)c(Cl)c1`, in data set [1], the 50% cytotoxic concentration (CC50) at 24 h was more than 100 µM. In addition, in [2], the inhibition was 94.4%. In data set [3], this compound gave an EC50 of 2.44 µM.
Turning to `O=C(CSc1c[nH]c2ccccc12)Nc1ccc(Cl)c(Cl)c1`, the inhibition in data set [2] came to 36%.
In data set [2], `CCOc1ccccc1NC(=O)CSc1c[nH]c2ccccc12` came in with an inhibition of 4%.
